Key:
[1] = system: Phakopsora pachyrhizi (F129L); assay: Protective control of soybean rust on soybeans (PHAKPA P6); assay type: in vivo; conditions: for % PHAKPA (F129L) Disease level P6 at 4 ppm: protective P6, 4 ppm; for % PHAKPA (F129L) Disease level P6 at 4 ppm / % PHAKPA (F129L) Disease level P6 at 16 ppm: soybean rust F129L; for % PHAKPA (F129L) Disease level P6 at 16 ppm: protective P6, 16 ppm
[2] = system: Phakopsora pachyrhizi (F129L); assay: Protective control of soybean rust on soybeans (PHAKPA P2); assay type: in vivo; conditions: for % PHAKPA (F129L) Disease level P2 at 4 ppm: protective P2, 4 ppm; for % PHAKPA (F129L) Disease level P2 at 4 ppm / % PHAKPA (F129L) Disease level P2 at 16 ppm: soybean rust F129L; for % PHAKPA (F129L) Disease level P2 at 16 ppm: protective P2, 16 ppm
[3] = P6 protective, % diseased leaf area
[4] = P2 protective, % diseased leaf area

Structure (SMILES)	PHAKPA (F129L) Disease level (%) P6 at 16 ppm [1, 3] [%]	% PHAKPA (F129L) Disease level P6 at 4 ppm [1] [%]	% PHAKPA (F129L) Disease level P6 at 16 ppm [1] [%]	PHAKPA (F129L) Disease level (%) P2 at 16 ppm [2, 4] [%]	% PHAKPA (F129L) Disease level P2 at 4 ppm [2] [%]	% PHAKPA (F129L) Disease level P2 at 16 ppm [2] [%]	PHAKPA (F129L) Disease level (%) P6 at 4 ppm ([1]; P6 protective, 4 ppm, % diseased leaf area) [%]	PHAKPA (F129L) Disease level (%) P2 at 4 ppm ([2]; P2 protective, 4 ppm, % diseased leaf area) [%]
CNC(=O)/C(=N/OC)c1cccc(C)c1CO/N=C(\C)c1cccc(C(F)F)c1 [Ex. 12]	9	37	9	3	25	1		
CNC(=O)/C(=N/OC)c1cccc(C)c1CO/N=C(\C)c1ccc(OC(F)(F)F)cc1 [compound 136]		3	2		1	0		
CNC(=O)/C(=N/OC)c1cccc(C)c1CO/N=C(\C)c1ccccc1Br [Ex. 120]	15	90	8	6	43	4		
CNC(=O)/C(=N/OC)c1cccc(C)c1CO/N=C(\C)c1c(F)cccc1F [compound 214]		28	4		14	0		
CO/N=C(/C(=O)OC)c1cccc(C)c1CO/N=C(\C)c1ccc(C(C)=O)cc1 [compound 166]		90	43		100	83		
CO/N=C(/C(=O)OC)c1cccc(C)c1CO/N=C(\C)c1cc(C(F)(F)F)cc(C(F)(F)F)c1 [compound 34]		90	83		100	90		
CNC(=O)/C(=N/OC)c1cccc(C)c1CO/N=C(\C)c1ccc(OC)cc1C(F)(F)F [compound 324]		12	0		2	1		
CO/N=C(/C(=O)OC)c1ccccc1CO/N=C(\C)c1cccc(Cl)c1 [reference compound]	70			73				
CNC(=O)/C(=N/OC)c1cccc(C)c1CO/N=C(\C)c1ccc(-c2ccccc2)cc1 [Ex. 113]	6	41	25	17	25	26		
CNC(=O)/C(=N/OC)c1cccc(C)c1CO/N=C(\CC(F)(F)F)c1ccccc1 [compound 380]		60	12		53	5		
C#Cc1cc(/C(C)=N/OCc2c(C)cccc2/C(=N\OC)C(=O)NC)cc(C(F)(F)F)c1 [compound 148]		13	7		9	2		
CO/N=C(/C(=O)OC)c1cccc(C)c1CO/N=C(\C)c1ccccc1C#N [compound 224]		100	100		97	100		
CNC(=O)/C(=N/OC)c1ccccc1CO/N=C(\C)c1ccc(C)cc1 [reference compound]							100	100
CNC(=O)/C(=N/OC)c1cccc(C)c1CO/N=C(\C)c1ccc(C(F)(F)F)cc1 [compound 39]		15	2		30	4		
CO/N=C(/C(=O)OC)c1ccccc1CO/N=C(\C)c1ccc(OC)cc1 [reference compound]	33			67				
CNC(=O)/C(=N/OC)c1cccc(C)c1CO/N=C(\C)c1ccc(C)cc1C(F)(F)F [compound 327]		48	4		23	3		
CNC(=O)/C(=N/OC)c1cccc(C)c1CO/N=C(\C)c1ccc(/C(C)=N\OC)cc1C(F)(F)F [compound 420]		12	1		8	0		
CCC/C(=N\OCc1c(C)cccc1/C(=N\OC)C(=O)NC)c1ccccc1 [compound 388]		3	0		1	0		

Structure (SMILES)	PHAKPA (F129L) Disease level (%) P6 at 16 ppm [1, 3] [%]	% PHAKPA (F129L) Disease level P6 at 4 ppm [1] [%]	% PHAKPA (F129L) Disease level P6 at 16 ppm [1] [%]	PHAKPA (F129L) Disease level (%) P2 at 16 ppm [2, 4] [%]	% PHAKPA (F129L) Disease level P2 at 4 ppm [2] [%]	% PHAKPA (F129L) Disease level P2 at 16 ppm [2] [%]	PHAKPA (F129L) Disease level (%) P6 at 4 ppm ([1]; P6 protective, 4 ppm, % diseased leaf area) [%]	PHAKPA (F129L) Disease level (%) P2 at 4 ppm ([2]; P2 protective, 4 ppm, % diseased leaf area) [%]
CNC(=O)/C(=N/OC)c1cccc(C)c1CO/N=C(\C)c1cccc(N2CC(F)(F)C2)c1 [compound 44]		77	21		77	17		
CNC(=O)/C(=N/OC)c1cccc(C)c1CO/N=C(\C)c1c(Cl)cc(Cl)cc1OC(F)(F)F [compound 428]		83	20		70	11		
CO/N=C(/C(=O)OC)c1cccc(C)c1CO/N=C(\C)c1cc(Cl)cc(C(F)(F)F)c1 [compound 33]		60	75		50	33		
CO/N=C(/c1cccc(/C(C)=N/OCc2c(C)cccc2/C(=N\OC)C(=O)OC)c1)C(F)(F)F [compound 70]		10	1		30	0		
CNC(=O)/C(=N/OC)c1cccc(C)c1CO/N=C(\C)c1ccc(F)c(C(F)(F)F)c1 [compound 47]		12	0		13	0		
CNC(=O)/C(=N/OC)c1cccc(C)c1CO/N=C(\C)c1c(Cl)cccc1Cl [compound 173]		97	17		100	53		
CNC(=O)/C(=N/OC)c1cccc(C)c1CO/N=C(\CC(C)C)c1cccc(C(F)(F)F)c1 [compound 235]		87	77		100	73		
CO/N=C(/C(=O)OC)c1cccc(C)c1CO/N=C(\C)c1ccc(Cl)c(C)c1 [compound 102]		90	43		60	11		
CO/N=C(/C(=O)OC)c1cccc(C)c1CO/N=C(\C)c1cc(Br)cc(F)c1F [compound 240]		73	3		70	8		
CNC(=O)/C(=N/OC)c1cccc(C)c1CO/N=C(\C)c1ccccc1C(F)F [compound 298]		97	37		63	7		
CO/C=C(/C(=O)OC)c1cccc(C)c1CO/N=C(\C)c1c(Cl)cc(Cl)cc1OC(F)(F)F [compound 436]		73	27		70	15		
CNC(=O)/C(=C/OC)c1cccc(C)c1CO/N=C(\C)c1cccc(C(F)(F)F)c1 [compound 232]		100	83		100	73		
C#Cc1cc(F)ccc1/C(C)=N/OCc1c(C)cccc1/C(=N\OC)C(=O)NC [compound 286]		97	27		67	15		
CNC(=O)/C(=N/OC)c1cccc(C)c1CO/N=C(\C)c1ccc(-c2cc(C)on2)cc1 [compound 64]		80	43		87	73		
CO/N=C(\C)COc1cccc(/C(C)=N/OCc2c(C)cccc2/C(=N\OC)C(=O)OC)c1 [compound 227]		100	57		100	47		
CO/C=C(/C(=O)OC)c1cccc(C)c1CO/N=C(\C)c1c(Cl)ccc(Cl)c1OC(F)(F)F [compound 444]		83	53		100	47		
C=Cc1cc(/C(C)=N/OCc2c(C)cccc2/C(=N\OC)C(=O)OC)cc(C(F)(F)F)c1 [compound 147]		95	18		73	18		
CNC(=O)/C(=N/OC)c1cccc(C)c1CO/N=C(\C)c1c(F)cc(F)cc1OC(F)(F)F [compound 344]		16	0		6	0		
